Measured values published in patent US12377084B2, “ERAP1 modulators” (GREY WOLF THERAPEUTICS LIMITED, priority 2019, dated 2025).
Where a name gives a salt, the structure may show the parent alone.

Target: T1, Purified ERAP1(37-941)-10 His (ERAP1) (Homo sapiens, UniProt Q9NZ08)
T1 construct: Purified ERAP1(37-941)-10 His (ERAP1); 10xHis (C)
Test: ERAP1 mediated hydrolysis of an amide substrate in a biochemical system (10 mer inhibition assay)
Details: 10-mer substrate, incubated at 23° C. for 1 h; excitation 279 nm, emission 355 nm; read-out: IC50 vs Decapeptide WRVYEKC(Dnp)ALK-acid (where Dnp is Dinitrophenyl maleimide) (10-mer)
Description: This peptide has minimal fluorescence as the N-terminal tryptophan residue's fluorescence is quenched by the dinitrophenol (DNP) residue within the peptide. However, as ERAP1 hydrolyses the N-terminal amide bond and tryptophan is released this internal quenching is lost and the reaction is monitored by the increase in tryptophan fluorescence over the course of the assay. For the purposes of this application this assay is referred to as the “10 mer inhibition assay” and compound potencies are calculated and expressed as IC50 as would be familiar to a person skilled in the art.
Biological Assay 1: ERAP1 Mediated Hydrolysis of an Amide Substrate Measured in a Biochemical System
1× Assay buffer (AB): 25 mM Bis-tris propane, 0.05% w/v
Hydroxypropylmethylcellulose pH 7.75 made with Optima grade water
Decapeptide WRVYEKC(Dnp)ALK-acid (where Dnp is Dinitrophenyl maleimide) (10-mer)
12.5 μL ERAP1 enzyme in 1×AB was combined with 250 nL test compound in DMSO. 12.5 μL of either 240 μM L-AMC in 1×AB or 100 μM 10-mer in 1×AB was added to the reaction and incubated at 23° C. for 1 h. For detection, plates were read at excitation 365 nm and emission 442 nm (L-AMC) or excitation 279 nm and emission 355 nm (10-mer). Compound IC50 was determined using a 4-parameter equation.

T1 sequence (Q9NZ08 37-941): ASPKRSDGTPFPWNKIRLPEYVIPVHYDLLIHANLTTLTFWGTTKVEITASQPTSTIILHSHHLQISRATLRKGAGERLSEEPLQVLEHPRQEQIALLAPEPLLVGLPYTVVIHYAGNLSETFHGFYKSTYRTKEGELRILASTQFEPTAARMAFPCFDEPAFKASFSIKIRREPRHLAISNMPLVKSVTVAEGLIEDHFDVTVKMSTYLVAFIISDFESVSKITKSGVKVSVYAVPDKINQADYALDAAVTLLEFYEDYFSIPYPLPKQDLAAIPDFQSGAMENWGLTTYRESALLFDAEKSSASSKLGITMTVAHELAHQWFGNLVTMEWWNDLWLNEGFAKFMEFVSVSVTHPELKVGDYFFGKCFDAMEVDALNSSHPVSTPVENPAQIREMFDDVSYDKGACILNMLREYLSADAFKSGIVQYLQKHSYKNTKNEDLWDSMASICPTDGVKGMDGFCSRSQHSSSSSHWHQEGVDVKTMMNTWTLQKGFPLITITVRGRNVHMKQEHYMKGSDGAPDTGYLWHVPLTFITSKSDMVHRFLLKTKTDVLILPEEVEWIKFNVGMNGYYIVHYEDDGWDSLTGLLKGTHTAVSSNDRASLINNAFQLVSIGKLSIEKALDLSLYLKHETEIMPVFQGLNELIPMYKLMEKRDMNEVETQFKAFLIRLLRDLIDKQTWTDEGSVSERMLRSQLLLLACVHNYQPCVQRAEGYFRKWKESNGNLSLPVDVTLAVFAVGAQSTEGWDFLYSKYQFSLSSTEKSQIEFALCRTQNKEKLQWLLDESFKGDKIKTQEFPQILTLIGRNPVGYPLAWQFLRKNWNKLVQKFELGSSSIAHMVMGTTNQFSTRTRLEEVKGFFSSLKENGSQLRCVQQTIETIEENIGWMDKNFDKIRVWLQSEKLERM

Compound	IC50 [nM]
CCc1ccc(C(=O)O)cc1S(=O)(=O)Nc1cc(C(F)(F)F)ccc1C1CCCNC1 (stereo not shown) [Example 3, 4-ethyl-3-(N-(2-(piperidin-3-yl)-5-(trifluoromethyl)phenyl)sulfamoyl)benzoic Acid Hydrochloride]	< 100
N#Cc1cc(NS(=O)(=O)c2cc(C(=O)O)ccc2C2CC2)c(C2CCCCN2)cc1F (stereo not shown) [Example 21, 3-(N-(5-cyano-4-fluoro-2-(piperidin-2-yl)phenyl)sulfamoyl)-4-cyclopropylbenzoic Acid]	< 100
CS(=O)(=O)c1cc(NS(=O)(=O)c2cc(C(=O)O)ccc2C2CC2)c(C2CCCCN2)cc1F (stereo not shown) [Example 25, 4-cyclopropyl-3-(N-(4-fluoro-5-(methylsulfonyl)-2-(piperidin-2-yl)phenyl)sulfamoyl)benzoic Acid Hydrochloride]	< 100
N#Cc1ccc(C2CCCCC2)c(NS(=O)(=O)c2cc(C(=O)O)ccc2C2CC2)c1 [Example 18, 3-(N-(5-cyano-2-cyclohexylphenyl)sulfamoyl)-4-cyclopropylbenzoic Acid]	< 100
O=C(O)c1ccc(C2CC2)c(S(=O)(=O)Nc2cc(C(F)(F)F)ccc2C2CCCCN2)c1 (single isomer, unassigned; enantiomer 2) [Example 30, 4-cyclopropyl-3-(N-(2-(piperidin-2-yl)-5-(trifluoromethyl)phenyl)sulfamoyl)benzoic Acid Enantiomer 2]	< 100
O=C(O)c1ccc(C2CC2)c(S(=O)(=O)Nc2cc(C(F)(F)F)ccc2C2CCCNC2)c1 (stereo not shown) [Example 12, 4-cyclopropyl-3-(N-(2-(piperidin-3-yl)-5-(trifluoromethyl)phenyl)sulfamoyl)benzoic Acid]	< 100
O=C(O)c1ccc(C2CC2)c(S(=O)(=O)Nc2cc(C(F)(F)F)c(Cl)cc2C2CCCCN2)c1 (stereo not shown) [Example 26, 3-(N-(4-chloro-2-(piperidin-2-yl)-5-(trifluoromethyl)phenyl)sulfamoyl)-4-cyclopropylbenzoic Acid]	< 100
CCc1ccc(C(=O)O)cc1S(=O)(=O)Nc1cc(C(F)(F)F)ccc1C1CCCN1C (stereo not shown) [Example 6, 4-ethyl-3-(N-(2-(1-methylpyrrolidin-2-yl)-5-(trifluoromethyl)phenyl)sulfamoyl)benzoic]	100 to 500
O=C(O)c1ccc(C2CC2)c(S(=O)(=O)Nc2cc(C(F)(F)F)ccc2C2CCCCN2)c1 (single isomer, unassigned; enantiomer 1) [Example 29, 4-cyclopropyl-3-(N-(2-(piperidin-2-yl)-5-(trifluoromethyl)phenyl)sulfamoyl)benzoic Acid Enantiomer 1]	< 100
CCc1ccc(C(=O)O)cc1S(=O)(=O)Nc1cc(C(F)(F)F)ccc1C1CCCN1 (stereo not shown) [Example 5, 4-ethyl-3-(N-(2-(pyrrolidin-2-yl)-5-(trifluoromethyl)phenyl)sulfamoyl)benzoic Acid]	100 to 500
O=C(O)c1ccc(C2CC2)c(S(=O)(=O)Nc2cc(-n3cnnn3)ccc2C2CCCCN2)c1 (stereo not shown) [Example 23, 4-cyclopropyl-3-(N-(2-(piperidin-2-yl)-5-(tetrazol-1-yl)phenyl)sulfamoyl)benzoic Acid]	< 100
CCc1ccc(C(=O)O)cc1S(=O)(=O)Nc1cc(S(C)(=O)=O)ccc1C1CCCCC1 [Example 11, 3-(N-(2-cyclohexyl-5-(methylsulfonyl)phenyl)sulfamoyl)-4-ethylbenzoic Acid]	< 100
CCc1ccc(C(=O)O)cc1S(=O)(=O)Nc1cc(S(C)(=O)=O)ccc1C1CCCCN1 (stereo not shown) [Example 15, 4-ethyl-3-(N-(5-(methylsulfonyl)-2-(piperidin-2-yl)phenyl)sulfamoyl)benzoic Acid]	< 100
O=C(O)c1cc(F)c(C2CC2)c(S(=O)(=O)Nc2cc(C(F)(F)F)ccc2C2CCCCN2)c1 (stereo not shown) [Example 31, 4-cyclopropyl-3-fluoro-5-(N-(2-(piperidin-2-yl)-5-(trifluoromethyl)phenyl)sulfamoyl)benzoic Acid]	< 100
CCc1ccc(C(=O)O)cc1S(=O)(=O)Nc1cc(C(F)(F)F)ccc1C1CCCCC1 [Example 9, 3-(N-(2-cyclohexyl-5-(trifluoromethyl)phenyl)sulfamoyl)-4-ethylbenzoic Acid]	< 100
CS(=O)(=O)c1ccc(C2CCCCC2)c(NS(=O)(=O)c2cc(C(=O)O)ccc2C2CC2)c1 [Example 17, 3-(N-(2-cyclohexyl-5-(methylsulfonyl)phenyl)sulfamoyl)-4-cyclopropylbenzoic Acid]	< 100
N#Cc1ccc(C2CCCCN2)c(NS(=O)(=O)c2cc(C(=O)O)ccc2C2CC2)c1 (stereo not shown) [Example 19, 3-(N-(5-cyano-2-(piperidin-2-yl)phenyl)sulfamoyl)-4-cyclopropylbenzoic Acid]	< 100
COc1ccc(C(=O)O)cc1S(=O)(=O)Nc1cc(C(F)(F)F)ccc1C1CCCN(C)C1 (stereo not shown) [Example 1, 4-methoxy-3-(N-(2-(1-methylpiperidin-3-yl)-5-(trifluoromethyl)phenyl)sulfamoyl)benzoic Acid]	> 500
CCc1ccc(C(=O)O)cc1S(=O)(=O)Nc1cc(C(F)(F)F)ccc1C1CCCCN1 (stereo not shown) [Example 8, 4-ethyl-3-(N-(2-(piperidin-2-yl)-5-(trifluoromethyl)phenyl)sulfamoyl)benzoic Acid]	< 100
O=C(O)c1ccc(C2CC2)c(S(=O)(=O)Nc2cc(C(F)(F)F)ccc2C2CCCCN2)c1 (stereo not shown) [Example 16, 4-cyclopropyl-3-(N-(2-(piperidin-2-yl)-5-(trifluoromethyl)phenyl)sulfamoyl)benzoic Acid]	< 100

Continued, values first:

IC50 [nM]	Compound
< 100	CS(=O)(=O)c1ccc(C2CCCCN2)c(NS(=O)(=O)c2cc(C(=O)O)ccc2C2CC2)c1 (stereo not shown) [Example 20, 4-cyclopropyl-3-(N-(5-(methylsulfonyl)-2-(piperidin-2-yl)phenyl)sulfamoyl)benzoic Acid]
< 100	CCc1ccc(C(=O)O)cc1S(=O)(=O)Nc1cc(S(C)(=O)=O)ccc1C1CCCNC1 (stereo not shown) [Example 14, 4-ethyl-3-(N-(5-(methylsulfonyl)-2-(piperidin-3-yl)phenyl)sulfamoyl)benzoic Acid]
< 100	CCc1ccc(C(=O)O)cc1S(=O)(=O)Nc1cc(C#N)ccc1C1CCCCC1 [Example 13, 3-(N-(5-cyano-2-cyclohexylphenyl)sulfamoyl)-4-ethylbenzoic Acid]
< 100	O=C(O)c1ccc(C2CC2)c(S(=O)(=O)Nc2cc(C(F)(F)F)c(F)cc2C2CCCCN2)c1 (stereo not shown) [Example 24, 4-cyclopropyl-3-(N-(4-fluoro-2-(piperidin-2-yl)-5-(trifluoromethyl)phenyl)sulfamoyl)benzoic Acid]
100 to 500	COc1ccc(C(=O)O)cc1S(=O)(=O)Nc1cc(C(F)(F)F)ccc1C1CCCNC1 (stereo not shown) [Example 2, 4-methoxy-3-(N-(2-(piperidin-3-yl)-5-(trifluoromethyl)phenyl)sulfamoyl)benzoic Acid Hydrochloride]
< 100	CCc1ccc(C(=O)O)cc1S(=O)(=O)Nc1cc(C(F)(F)F)ccc1C1CCCCN1C (stereo not shown) [Example 10, 4-ethyl-3-(N-(2-(1-methylpiperidin-2-yl)-5-(trifluoromethyl)phenyl)sulfamoyl)benzoic Acid]
< 100	N#Cc1cc(NS(=O)(=O)c2cc(C(=O)O)ccc2C2CC2)c(C2CCCCN2)cc1Cl (stereo not shown) [Example 22, 3-(N-(4-chloro-5-cyano-2-(piperidin-2-yl)phenyl)sulfamoyl)-4-cyclopropylbenzoic Acid]
< 100	CCc1ccc(C(=O)O)cc1S(=O)(=O)Nc1cc(-n2cnnn2)ccc1C1CCCCC1 [Example 4, 3-(N-(2-cyclohexyl-5-(tetrazol-1-yl)phenyl)sulfamoyl)-4-ethylbenzoic Acid]
< 100	O=C(O)c1ccc(C2CC2)c(S(=O)(=O)Nc2cc(-c3ccns3)ccc2C2CCCCN2)c1 (stereo not shown) [Example 28, 4-cyclopropyl-3-(N-(5-(isothiazol-5-yl)-2-(piperidin-2-yl)phenyl)sulfamoyl)benzoic Acid]
< 100	CCc1ccc(C(=O)O)cc1S(=O)(=O)Nc1cc(C(F)(F)F)ccc1C1CCNC1 (stereo not shown) [Example 7, 4-ethyl-3-(N-(2-(pyrrolidin-3-yl)-5-(trifluoromethyl)phenyl)sulfamoyl)benzoic Acid]
< 100	CS(=O)(=O)c1cc(NS(=O)(=O)c2cc(C(=O)O)ccc2C2CC2)c(C2CCCCN2)cc1Cl (stereo not shown) [Example 27, 3-(N-(4-chloro-5-(methylsulfonyl)-2-(piperidin-2-yl)phenyl)sulfamoyl)-4-cyclopropylbenzoic Acid Hydrochloride]
